The record followed here is patent US8664257B2, “Oxygen-substituted 3-heteroaroylamino-propionic acid derivatives and their use as pharmaceuticals” (Sanofi, priority 2010, dated 2014).

One experiment has as its target T1, Recombinant human cathepsin A (Homo sapiens, UniProt P10619).
T1 construct: Recombinant human cathepsin A (residues 29-480, with a C-terminal 10-His tag); 10-His (C); purchased R&D Systems 1049-SE
T1 sequence (P10619 29-312 limits assumed): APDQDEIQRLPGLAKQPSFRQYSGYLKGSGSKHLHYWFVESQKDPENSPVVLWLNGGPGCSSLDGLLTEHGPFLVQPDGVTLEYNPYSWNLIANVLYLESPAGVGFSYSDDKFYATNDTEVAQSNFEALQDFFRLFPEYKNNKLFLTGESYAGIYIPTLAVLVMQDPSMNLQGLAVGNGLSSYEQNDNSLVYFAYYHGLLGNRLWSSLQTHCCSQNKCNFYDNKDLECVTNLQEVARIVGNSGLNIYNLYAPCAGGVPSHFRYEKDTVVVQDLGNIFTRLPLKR
T1 sequence (P10619 327-480 limits assumed): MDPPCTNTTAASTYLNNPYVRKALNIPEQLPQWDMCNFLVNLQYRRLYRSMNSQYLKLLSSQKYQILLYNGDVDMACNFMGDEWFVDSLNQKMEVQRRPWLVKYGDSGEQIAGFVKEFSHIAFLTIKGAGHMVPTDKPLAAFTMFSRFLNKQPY
The experiment can be described thus: Cathepsin A inhibitory activity. In kind it is biochemical. The conditions noted are these: pharmacological test "Cathepsin A inhibitory activity"; IC50 given as class A/B/C; read-out: Activity (2): Cathepsin A inhibitory activity, IC50 class. In outline: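 Human cathepsin A (res. 29-480, C-His10) pre-activated with cathepsin L (MES pH 6.0, DTT, 15 min, 37 °C; quenched with 10 μM E-64). Enzyme (833 ng/ml) preincubated 15 min RT with compound in MES pH 5.5/DTT, then 2 μM Bodipy FL-bradykinin for 15 min RT. Capillary electrophoresis product/substrate peak areas; IC50 from % inhibition.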
For the molecule `COc1cccc([C@H](CC(=O)O)NC(=O)c2cc(O)n(-c3ccc(F)cc3F)n2)c1OC` [Example 189], the half-maximal inhibitory concentration (IC50) is 100 to 1000 nM.
As for `COc1ccc(C(CC(=O)O)NC(=O)c2cc(O)n(-c3ccccc3F)n2)c(Cl)c1` (centres unmarked) [Example 235], the concentration for half-maximal inhibition (IC50) was in the range of 100 to 1000 nM.
In the case of `O=C(O)CC(NC(=O)c1cc(O)n(-c2ccccc2)n1)c1cccc2c1OCO2` (centres unmarked) [Example 158], the 50% inhibitory concentration (IC50) was 100 to 1000 nM.
Take `O=C(O)C[C@H](NC(=O)c1cc(O)n(-c2ccccc2)n1)c1cccc(Cl)c1Cl` [Example 164]: the IC50 is less than 100 nM.

Still in this experiment, the particulars now being: read-out: Activity (2): Cathepsin A inhibitory activity (IC50 class).
For the molecule `COc1ccc(F)c(C(CC(=O)O)NC(=O)c2cc(O)n(-c3ccccc3)n2)c1` (centres unmarked) [Example 547, 3-(2-Fluoro-5-methoxy-phenyl)-3-[(5-hydroxy-1-phenyl-1H-pyrazole-3-carbonyl)-amino]-propionic acid], the 50% inhibitory concentration (IC50) was in the range of 1000 to 30000 nM.
Turning to `COc1ccc(F)c(C(CC(=O)O)NC(=O)c2cc(O)n(-c3ccccc3F)n2)c1` (centres unmarked) [Example 553, 3-(2-Fluoro-5-methoxy-phenyl)-3-{[1-(2-fluoro-phenyl)-5-hydroxy-1H-pyrazole-3-carbonyl]-amino}-propionic acid], the IC50 lay in the range of 100 to 1000 nM.
On to `Cc1ccccc1[C@H](CC(=O)O)NC(=O)c1cc(OCc2c(F)cccc2F)n(-c2ccccc2F)n1` [Example 644], for which the IC50 is less than 100 nM.
On to `Cc1ccccc1[C@H](CC(=O)O)NC(=O)c1cc(OC[C@H]2CCC(=O)N2)n(-c2ccccc2F)n1` [Example 652], for which the IC50 was less than 100 nM.
For `O=C(O)CC(NC(=O)c1cc(O)n(Cc2ccccc2)n1)c1ccc(-c2ccc(F)cc2)cc1` (centres unmarked) [Example 538], the half-inhibitory concentration (IC50) was in the range of 100 to 1000 nM.
For the molecule `CC(C)(C)[C@](C)(O)COc1cc(C(=O)N[C@@H](CC(=O)O)c2ccccc2Cl)nn1-c1ccccc1F` [Example 789, (S)-3-(2-Chloro-phenyl)-3-{[1-(2-fluoro-phenyl)-5-((S)-2-hydroxy-2,3,3-trimethyl-butoxy)-1H-pyrazole-3-carbonyl]-amino}-propionic acid], the concentration for half-maximal inhibition (IC50) was less than 100 nM.
As for `Cc1ccc([C@H](CC(=O)O)NC(=O)c2cc(OCC(C)(O)C(C)C)n(-c3ccccc3F)n2)cc1` (stereo partly drawn) [Example 787, (S)-3-{[1-(2-Fluoro-phenyl)-5-(2-hydroxy-2,3-dimethyl-butoxy)-1H-pyrazole-3-carbonyl]-amino}-3-p-tolyl-propionic acid], the IC50 is less than 100 nM.
Same read-out and setting: the figure for `CCC(O)(CC)COc1cc(C(=O)N[C@@H](CC(=O)O)c2ccc(Cl)cc2Cl)nn1-c1ccccc1F` [Example 762, (S)-3-(2,4-Dichloro-phenyl)-3-{[5-(2-ethyl-2-hydroxy-butoxy)-1-(2-fluoro-phenyl)-1H-pyrazole-3-carbonyl]-amino}-propionic acid] is less than 100 nM.

The experiment is the same for the next values; noted with them: read-out: Activity (2): Cathepsin A inhibitory activity, IC50 class.
Regarding `COc1ccccc1[C@H](CC(=O)O)NC(=O)c1cc(OC[C@](C)(O)C(C)C)n(-c2ccccc2F)n1` [Example 822, (S)-3-{[1-(2-Fluoro-phenyl)-5-((R)-2-hydroxy-2,3-dimethyl-butoxy)-1H-pyrazole-3-carbonyl]-amino}-3-(2-methoxy-phenyl)-propionic acid], the IC50 was less than 100 nM.
For `O=C(O)C[C@H](NC(=O)c1cc(O)n(-c2ccccc2Cl)n1)c1ccccc1F` [Example 107], the IC50 is 100 to 1000 nM.
For `COc1ccc(Cl)cc1C(CC(=O)O)NC(=O)c1cc(O)n(-c2ccc(F)cc2)n1` (centres unmarked) [Example 344], the IC50 is 100 to 1000 nM.
For the molecule `COc1ccccc1[C@H](CC(=O)O)NC(=O)c1cc(O)n(-c2ccccc2)n1` [Example 100], the 50% inhibitory concentration (IC50) was 100 to 1000 nM.
Regarding `O=C(O)C[C@H](NC(=O)c1cc(O)n(-c2cccc(F)c2)n1)c1cccnc1` [Example 334], the IC50 is 100 to 1000 nM.
The same measure, in the same setting: the figure for `O=C(O)CC(NC(=O)c1cc(O)n(-c2ccc(F)cc2)n1)c1ccc(F)cc1F` (centres unmarked) [Example 86] is 1000 to 30000 nM.
With `O=C(O)CC(NC(=O)c1cc(O)n(-c2ccc(F)cc2)n1)c1ccc(-c2cccc(F)c2)cc1` (centres unmarked) [Example 356], the 50% inhibitory concentration (IC50) lay in the range of 100 to 1000 nM.
For the molecule `CC(C)C(C)(O)COc1cc(C(=O)NC(CC(=O)O)Cc2ccccc2)nn1-c1ccccc1F` (centres unmarked) [Example 829, 3-{[1-(2-Fluoro-phenyl)-5-(2-hydroxy-2,3-dimethyl-butoxy)-1H-pyrazole-3-carbonyl]-amino}-4-phenyl-butyric acid], the half-inhibitory concentration (IC50) was in the range of 100 to 1000 nM.
With `O=C(O)CC(NC(=O)c1cc(O)n(-c2ccccc2F)n1)c1cccc(Cl)c1Cl` (centres unmarked) [Example 402], the 50% inhibitory concentration (IC50) was less than 100 nM.
In the case of `COc1cccc([C@H](CC(=O)O)NC(=O)c2cc(O)n(-c3ccc(Cl)cc3)n2)c1OC` [Example 283], the half-inhibitory concentration (IC50) was 100 to 1000 nM.
For `CCc1ccc(C(CC(=O)O)NC(=O)c2cc(O)n(-c3ccccc3)n2)cc1` (centres unmarked) [Example 22], the IC50 is 100 to 1000 nM.
Take `O=C(O)C[C@H](NC(=O)c1cc(O)n(-c2ccc(F)cc2)n1)c1ccc(C(F)(F)F)cc1` [Example 351]: the IC50 is 1000 to 30000 nM.
Regarding `O=C(O)CC(NC(=O)c1cc(O)n(-c2ccccc2)n1)c1ccc(Cl)c(Cl)c1` (centres unmarked) [Example 62], the IC50 lay within 100 to 1000 nM.
The same measure, in the same setting: the figure for `CC(C)(C)[C@@H](O)COc1cc(C(=O)N[C@@H](CC(=O)O)c2cccc(Cl)c2)nn1-c1ccccc1F` [Example 795, (S)-3-(3-Chloro-phenyl)-3-{[1-(2-fluoro-phenyl)-5-((R)-2-hydroxy-3,3-dimethyl-butoxy)-1H-pyrazole-3-carbonyl]-amino}-propionic acid] is less than 100 nM; for `O=C(O)CC(NC(=O)c1cc(O)n(-c2cccc(F)c2)n1)c1ccc(OC(F)(F)F)cc1` (centres unmarked) [Example 315] it is 100 to 1000 nM; for `Cc1ccc(C)c(-n2nc(C(=O)NC(CC(=O)O)C(C)C)cc2O)c1` (centres unmarked) [Example 32] it is 1000 to 30000 nM.
The same measure, in the same setting: the figure for `O=C(O)C[C@H](NC(=O)c1cc(O)n(-c2ccccc2Cl)n1)c1ccccc1C(F)(F)F` [Example 108] is 100 to 1000 nM.

The same experiment, now with this note: recombinant human cathepsin A 833 ng/ml, Bodipy FL-labeled bradykinin 2 μM, pH 5.5; read-out: CATH-A IC50.
Consider `COc1ccc(F)c(C(CC(=O)O)NC(=O)c2cc(O)n(-c3ccccc3)n2)c1` (centres unmarked) [Example 547, 3-(2-Fluoro-5-methoxy-phenyl)-3-[(5-hydroxy-1-phenyl-1H-pyrazole-3-carbonyl)-amino]-propionic acid], for which the IC50 is 1390 nM.
Regarding `COc1ccc(F)c(C(CC(=O)O)NC(=O)c2cc(O)n(-c3ccccc3F)n2)c1` (centres unmarked) [Example 553, 3-(2-Fluoro-5-methoxy-phenyl)-3-{[1-(2-fluoro-phenyl)-5-hydroxy-1H-pyrazole-3-carbonyl]-amino}-propionic acid], the IC50 stood at 732 nM.
The same measure, in the same setting: the figure for `O=C(O)CC(NC(=O)c1cc(O)n(-c2cccc(Cl)c2)n1)c1cc(F)ccc1C(F)(F)F` (centres unmarked) [Example 466, 3-{[1-(3-Chloro-phenyl)-5-hydroxy-1H-pyrazole-3-carbonyl]-amino}-3-(5-fluoro-2-trifluoromethyl-phenyl)-propionic acid] is 562 nM.
As for `O=C(O)C[C@H](NC(=O)c1cc(O)n(-c2ccc(F)cc2F)n1)c1ccccc1Cl` [Example 502, (S)-3-(2-Chloro-phenyl)-3-{[1-(2,4-difluoro-phenyl)-5-hydroxy-1H-pyrazole-3-carbonyl]-amino}-propionic acid], the IC50 was 116 nM.
With `CN(C)c1ccc(C(CC(=O)O)NC(=O)c2cc(O)n(-c3cccc(Cl)c3)n2)c(Cl)c1` (centres unmarked) [Example 463, 3-(2-Chloro-4-dimethylamino-phenyl)-3-{[1-(3-chloro-phenyl)-5-hydroxy-1H-pyrazole-3-carbonyl]-amino}-propionic acid], the IC50 came to 11100 nM.

Staying with this experiment, now noted: recombinant human cathepsin A; read-out: Activity (2): Cathepsin A inhibitory activity, IC50 class.
Regarding `Cc1cc(F)ccc1C(CC(=O)O)NC(=O)c1cc(O)n(-c2cccc(Cl)c2)n1` (centres unmarked) [Example 420], the IC50 was 100 to 1000 nM.
On to `O=C(O)CC(NC(=O)c1cc(O)n(-c2cccc(Cl)c2)n1)c1cc(F)ccc1C(F)(F)F` (centres unmarked) [Example 466, 3-{[1-(3-Chloro-phenyl)-5-hydroxy-1H-pyrazole-3-carbonyl]-amino}-3-(5-fluoro-2-trifluoromethyl-phenyl)-propionic acid], for which the half-inhibitory concentration (IC50) lay within 100 to 1000 nM.
Take `O=C(O)CC(NC(=O)c1cc(O)n(-c2cccc(Cl)c2)n1)c1cccc(Cl)c1` (centres unmarked) [Example 408]: the half-maximal inhibitory concentration (IC50) was 100 to 1000 nM.
Same read-out and setting: then `O=C(O)C[C@H](NC(=O)c1cc(O)n(-c2ccc(F)cc2F)n1)c1ccccc1Cl` [Example 502, (S)-3-(2-Chloro-phenyl)-3-{[1-(2,4-difluoro-phenyl)-5-hydroxy-1H-pyrazole-3-carbonyl]-amino}-propionic acid], with 100 to 1000 nM; and `CN(C)c1ccc(C(CC(=O)O)NC(=O)c2cc(O)n(-c3cccc(Cl)c3)n2)c(Cl)c1` (centres unmarked) [Example 463, 3-(2-Chloro-4-dimethylamino-phenyl)-3-{[1-(3-chloro-phenyl)-5-hydroxy-1H-pyrazole-3-carbonyl]-amino}-propionic acid], with 1000 to 30000 nM; and `O=C(O)CC(NC(=O)c1cc(O)n(-c2ccccc2F)n1)c1cccc2c1OC(F)(F)O2` (centres unmarked) [Example 476], with 100 to 1000 nM.
On the same count and under the same terms, the figure for `O=C(O)C[C@H](NC(=O)c1cc(O)n(-c2cccc(Cl)c2)n1)c1cccc(F)c1` [Example 414] is 1000 to 30000 nM.
